In data set [1] the target is T1, Glycine max (soybean) homoglutathione synthetase, recombinant, C-terminal HIS-tag (pET-MS4-His), SEQ ID No. 1 (Glycine max, UniProt Q9M426).
T1 sequence (Q9M426 1-499): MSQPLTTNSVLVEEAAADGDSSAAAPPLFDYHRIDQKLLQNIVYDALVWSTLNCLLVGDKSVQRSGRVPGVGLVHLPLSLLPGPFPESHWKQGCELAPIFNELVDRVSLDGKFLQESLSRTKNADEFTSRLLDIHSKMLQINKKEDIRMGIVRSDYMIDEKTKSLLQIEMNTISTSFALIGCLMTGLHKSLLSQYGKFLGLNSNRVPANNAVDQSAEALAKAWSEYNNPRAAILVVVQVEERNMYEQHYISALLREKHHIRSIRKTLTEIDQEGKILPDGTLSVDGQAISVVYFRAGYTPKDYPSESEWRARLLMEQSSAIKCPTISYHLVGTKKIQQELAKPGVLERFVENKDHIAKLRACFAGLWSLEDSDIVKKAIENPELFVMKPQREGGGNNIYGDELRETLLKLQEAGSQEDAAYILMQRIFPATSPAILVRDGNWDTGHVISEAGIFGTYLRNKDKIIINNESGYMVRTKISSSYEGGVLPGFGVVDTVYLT
The data set can be described thus: Activity of recombinant homoglutathione synthetase (addition of glycine or β-alanine onto γ-glutamylcysteine; monobromobimane derivatisation). Type of data set: biochemical. Conditions: 250 mM Tris-HCl pH 8.0, 50 mM KCl, 20 mM MgCl2, 5 mM DTT, 10 mM ATP, 1 mM γ-glutamylcysteine; 30° C. The procedure: (§1) A 5′ Nco 1 and 3′ Xho 1 restriction enzyme site were introduced into the homoglutathione synthetase cDNA via PCR using primers MS4-Nco (SEQ ID No. 19) and MS-4-HIS (SEQ ID No. 20). Additionally, the use of the MS4-HIS primer provided a C-terminal HIS-tag to assist purification of the enzyme. 5.2 The resulting PCR fragment was digested with Nco1 and Xho 1 and ligated into similarly digested pET-24d. This vector was termed pET-MS4-His. The purification of homoglutathione synthetase was performed using the following method. E. coli BL21 (DE3) harbouring the pET-MS4-His plasmid (section 1.3) were grown at 30° C. until OD600=0.5, after which isopropyl-β-D-thiogalactoside (IPTG) was added to a final concentration of 0.1 mM. Following a 3 hour incubation the bacteria were collected by centrifugation, re-suspended in buffer A (20 mM Tris, 0.5 M NaCl, 5 mM imidazole pH 8.0) and lysed. […] 5.3 The eluted protein was concentrated using a Centriplus 30 (Amicon™) spin column and re-suspended in buffer A prior to application onto a 1 ml HiTrap chelating column (Phamacia™), pre-charged with NiSO4 and equilibrated as described previously. Affinity bound protein was then recovered using an increasing concentration of 20–200 mM imidiazole and the presence of His-tagged recombinant homoglutathione synthetase was detected using His-tagged antibodies according to known procedures. […]

Data set [2] relates to transgenic tobacco line T82 3740 (pFT2: soybean GST 3.3 and homoglutathione synthetase). The data set can be described thus: Herbicide tolerance test, transgenic tobacco line T82 3740. Type of data set: in vivo, Nicotiana tabacum. Conditions: fomesafen 10 g ai ha^-1 to aerial tissue at approximately 10-leaf stage, visual assessment 5 days post application. An excerpt:
(§2) 6.1 Plants with increased tolerance to the herbicides acifluorfen and fomesafen were obtained by expression in the plant host of both the active soybean GST 3.3 and the homoglutathione synthetase to further increase levels of homoglutathione, required for the enhanced efficiency function of GST 3.3. 6.2 PCR, using oligonucleotide primers hGSH-Nco1 (SEQ ID No. 21) and hGSH-Kpn1 (SEQ ID No.22) was used to introduce a 5′ Nco1 site and 3′ Kpn1 site into the […]. The resulting PCR product was purified, sequenced, digested with Nco1 and Kpn1 and ligated into the vector pMJB2 (FIG. 1). The expression cassette, comprising the double enhanced CaMV35S promoter: Glucanase II leader, hGSH synthetase cDNA and nos terminator was then excised from pMJB2 using […] and ligated into the similarly digested binary vector pMOG800 (FIG. 3). 6.3 Oligonucleotide primers 3.6-Bgl II (SEQ ID No. 23) and 3.6 Nco1 (SEQ ID No.24) were used to introduce Nco1 and Bgl II sites at the 5′ and 3′ end of the GST 3.6 cDNA respectively. The resulting PCR product was purified, sequenced, digested with Nco1 and Bgl II and sub-cloned into the vector pMOG 1051 (FIG. 2). […] Orientation of the insert was determined by PCR. […]

The subject of data set [3] is transgenic tobacco line T82 3747 (pFT2: soybean GST 3.3 and homoglutathione synthetase). The data set can be described thus: Herbicide tolerance test, transgenic tobacco line T82 3747. Conditions: fomesafen 10 g ai ha^-1 to aerial tissue at approximately 10-leaf stage, visual assessment 5 days post application. Type of data set: in vivo, Nicotiana tabacum.
From the text: as §2

Data set [4] concerns Nicotiana tabacum var. Samsun, WT. Nature of the data set: Herbicide tolerance test, wild-type tobacco. It is filed as in vivo. The note with it: fomesafen 10 g ai ha^-1 to aerial tissue at approximately 10-leaf stage, visual assessment 5 days post application. The method, then: 7.1 The binary vector pFT2 was transformed into Agrobacterium tumefaciens strain LBA 4404 using the freeze thaw method of transformation provided by Holsters et al., 1978. Tobacco transformation and whole plant regeneration was performed using Nicotiana tabacum var. Samsun according to standard protocols detailed by Bevan, 1984. Transformation events were selected on MS-media containing kanamycin. Other transformation methods may be employed for the transformation of other crops, such as soybean. Examples of such methods are referred to below.
9.1 Following tissue culture, kanamycin-resistant plantlets were transferred to 5 inch pots containing John Innes potting compost no. 3. The plants were allowed to develop to approximately the 10-leaf stage and fomesafen applied at 10 g ai ha^−1, formulated with non-ionic surfactant, to the aerial tissue using a track sprayer. Visual assessment of phytotoxicity/plant necrosis is performed 5 days post application.

Substrate in data set [5]: NCCC(=O)O
Nature of the data set: purified protein, by the assay type. Conditions: other: 250 mM Tris-HCl pH 8.0, 50 mM KCl, 20 mM MgCl2, 5 mM DTT, 10 mM ATP, 1 mM γ-glutamylcysteine, 30° C.

Substrate in data set [6]: NCC(=O)O
Nature of the data set: purified protein, by the assay type. Conditions: other: 250 mM Tris-HCl pH 8.0, 50 mM KCl, 20 mM MgCl2, 5 mM DTT, 10 mM ATP, 1 mM γ-glutamylcysteine, 30° C. It is filed as biochemical, Glycine max (soybean). The method, then: as §1

With `NCCC(=O)O` [β-alanine], the Vmax in data set [1] turned out to be 42250 ± 3173 pkats/mg hGS.
Consider `NCC(=O)O` [Glycine], for which the Vmax in data set [1] was found to be 3300 ± 341 pkats/mg hGS.
For `CS(=O)(=O)NC(=O)c1cc(Oc2ccc(C(F)(F)F)cc2Cl)ccc1[N+](=O)[O-]` [fomesafen], the “% damage” value in data set [2] turned out to be 15%; in data set [3] it was 5%; in data set [4], 55%.

B1: Glycine max (soybean) homoglutathione synthetase, recombinant, C-terminal HIS-tag (pET-MS4-His), SEQ ID No. 1 (Glycine max) (protein)
chain: MSQPLTTNSVLVEEAAADGDSSAAAPPLFDYHRIDQKLLQNIVYDALVWSTLNCLLVGDKSVQRSGRVPGVGLVHLPLSLLPGPFPESHWKQGCELAPIFNELVDRVSLDGKFLQESLSRTKNADEFTSRLLDIHSKMLQINKKEDIRMGIVRSDYMIDEKTKSLLQIEMNTISTSFALIGCLMTGLHKSLLSQYGKFLGLNSNRVPANNAVDQSAEALAKAWSEYNNPRAAILVVVQVEERNMYEQHYISALLREKHHIRSIRKTLTEIDQEGKILPDGTLSVDGQAISVVYFRAGYTPKDYPSESEWRARLLMEQSSAIKCPTISYHLVGTKKIQQELAKPGVLERFVENKDHIAKLRACFAGLWSLEDSDIVKKAIENPELFVMKPQREGGGNNIYGDELRETLLKLQEAGSQEDAAYILMQRIFPATSPAILVRDGNWDTGHVISEAGIFGTYLRNKDKIIINNESGYMVRTKISSSYEGGVLPGFGVVDTVYLT
By Km is commonly meant the substrate concentration at which the rate is half of its maximum. Take B1: the results for the Km in data set [5] and in data set [6] were 0.84 ± 0.19 mM and 54.9 ± 18.7 mM, respectively.

The values are drawn from US7056715B1, “GST sequences from soybean and their use in the production of herbicide resistant plants” (Syngenta Limited, priority 1999, dated 2006).
